In ChEMBL document CHEMBL2385041, “The discovery of colchicine-SAHA hybrids as a new class of antitumor agents” (Bioorg Med Chem, 2013):
Activity calls are given as the source filed them. The rule behind the calls is not given here.

How the values were obtained:
[1] = test system: PC-3; assay: Cytotoxicity against human PC3 cells after 72 hrs by MTT assay; type: functional, cell-based; settings: PC-3, 72 h
[2] = test system: MCF7; assay: Cytotoxicity against human MCF7 cells after 72 hrs by MTT assay; type: functional, cell-based; settings: MCF7, 72 h
[3] = test system: HCT-116; assay: Cytotoxicity against human HCT116 cells after 72 hrs by MTT assay; type: functional, cell-based; settings: HCT-116, 72 h
[4] = test system: A549; assay: Cytotoxicity against human A549 cells after 72 hrs by MTT assay; type: functional, cell-based; settings: A549, 72 h
[5] = test system: A-431; assay: Cytotoxicity against human A431 cells after 72 hrs by MTT assay; type: functional, cell-based; settings: A-431, 72 h
[6] = test system: Bel-7402; assay: Cell cycle arrest in human Bel7402 cells assessed as accumulation at G2/M phase at 1 uM relative to control; type: functional, cell-based
[7] = test system: Bel-7402; assay: Cell cycle arrest in human Bel7402 cells assessed as accumulation at G2/M phase at 10 uM relative to control; type: functional, cell-based
[8] = target: T1, Protein deacetylase HDAC6 (Homo sapiens, UniProt Q9UBN7); assay: Inhibition of human recombinant HDAC6 expressed in High5 insect cells using Boc-Lys (-acetyl)-AM) as substrate after 24 hrs by fluorescence assay
T1 sequence (Q9UBN7 whole entry): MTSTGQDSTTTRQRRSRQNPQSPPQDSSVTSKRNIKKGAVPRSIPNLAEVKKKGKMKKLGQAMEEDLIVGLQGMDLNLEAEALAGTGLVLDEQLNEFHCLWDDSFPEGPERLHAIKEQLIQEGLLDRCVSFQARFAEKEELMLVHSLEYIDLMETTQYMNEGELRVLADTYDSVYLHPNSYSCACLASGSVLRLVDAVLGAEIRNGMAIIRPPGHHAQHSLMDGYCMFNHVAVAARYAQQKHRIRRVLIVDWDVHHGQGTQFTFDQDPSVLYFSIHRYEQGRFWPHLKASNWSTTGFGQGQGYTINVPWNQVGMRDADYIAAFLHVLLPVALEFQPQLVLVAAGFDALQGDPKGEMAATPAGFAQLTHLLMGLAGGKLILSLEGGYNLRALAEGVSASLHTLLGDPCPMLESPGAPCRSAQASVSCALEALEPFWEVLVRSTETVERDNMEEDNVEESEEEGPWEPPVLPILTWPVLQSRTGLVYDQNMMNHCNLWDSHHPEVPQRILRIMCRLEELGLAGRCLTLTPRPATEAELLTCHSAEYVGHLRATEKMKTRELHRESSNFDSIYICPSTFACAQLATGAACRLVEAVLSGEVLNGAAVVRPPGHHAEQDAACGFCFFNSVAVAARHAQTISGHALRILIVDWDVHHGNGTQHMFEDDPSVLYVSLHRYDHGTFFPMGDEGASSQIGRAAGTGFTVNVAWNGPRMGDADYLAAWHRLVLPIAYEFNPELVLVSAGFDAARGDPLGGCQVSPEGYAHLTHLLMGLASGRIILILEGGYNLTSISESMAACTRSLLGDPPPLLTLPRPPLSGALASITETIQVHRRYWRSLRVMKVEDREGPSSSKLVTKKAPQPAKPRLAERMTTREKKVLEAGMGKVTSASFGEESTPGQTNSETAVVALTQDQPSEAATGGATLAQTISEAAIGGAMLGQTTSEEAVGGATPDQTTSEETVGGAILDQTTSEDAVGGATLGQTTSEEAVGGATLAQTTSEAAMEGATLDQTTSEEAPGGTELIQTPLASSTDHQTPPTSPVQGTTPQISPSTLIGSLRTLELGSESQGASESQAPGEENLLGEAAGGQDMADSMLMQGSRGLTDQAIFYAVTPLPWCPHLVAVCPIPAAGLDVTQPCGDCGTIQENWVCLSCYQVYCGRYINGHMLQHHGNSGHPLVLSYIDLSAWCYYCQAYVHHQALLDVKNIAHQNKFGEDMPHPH

[9] = target: Histone deacetylase 3 (Homo sapiens, UniProt O15379); assay: Inhibition of human recombinant HDAC3 expressed in High5 insect cells using Ac-Lys-Tyr-Lys(-acetyl)-AMC as substrate after 24 hrs by fluorescence assay
[10] = target: Histone deacetylase 1 (Homo sapiens, UniProt Q13547); assay: Inhibition of human recombinant HDAC1 expressed in High5 insect cells using Ac-Lys-Tyr-Lys(-acetyl)-AMC as substrate after 24 hrs by fluorescence assay
Sequence of Histone deacetylase 1 (Q13547 whole entry): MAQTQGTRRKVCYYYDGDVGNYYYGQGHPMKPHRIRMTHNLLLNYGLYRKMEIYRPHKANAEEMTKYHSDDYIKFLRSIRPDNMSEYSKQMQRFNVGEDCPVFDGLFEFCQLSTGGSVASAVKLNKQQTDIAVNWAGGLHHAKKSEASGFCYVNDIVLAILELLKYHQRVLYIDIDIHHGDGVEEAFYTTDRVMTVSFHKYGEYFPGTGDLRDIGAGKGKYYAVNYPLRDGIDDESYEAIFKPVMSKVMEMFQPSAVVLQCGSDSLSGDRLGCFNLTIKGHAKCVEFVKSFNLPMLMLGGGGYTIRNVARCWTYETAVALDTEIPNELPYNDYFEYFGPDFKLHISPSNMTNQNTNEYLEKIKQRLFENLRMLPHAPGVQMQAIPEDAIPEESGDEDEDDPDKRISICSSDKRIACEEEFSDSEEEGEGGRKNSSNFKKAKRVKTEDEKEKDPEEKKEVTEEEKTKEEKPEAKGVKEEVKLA

Sequence of Histone deacetylase 3 (O15379 whole entry): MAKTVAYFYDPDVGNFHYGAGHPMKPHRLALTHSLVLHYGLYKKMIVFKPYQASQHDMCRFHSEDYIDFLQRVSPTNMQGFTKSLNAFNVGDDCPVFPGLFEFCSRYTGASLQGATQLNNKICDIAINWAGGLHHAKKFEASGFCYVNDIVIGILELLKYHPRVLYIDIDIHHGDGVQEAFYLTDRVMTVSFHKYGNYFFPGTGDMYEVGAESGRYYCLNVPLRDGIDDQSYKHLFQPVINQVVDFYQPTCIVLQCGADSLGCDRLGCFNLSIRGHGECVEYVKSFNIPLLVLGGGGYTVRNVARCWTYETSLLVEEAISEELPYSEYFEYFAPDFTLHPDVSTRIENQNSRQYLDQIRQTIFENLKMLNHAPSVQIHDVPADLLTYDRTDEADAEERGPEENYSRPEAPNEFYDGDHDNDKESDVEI

| SMILES | IC50 [1] [nM] | IC50 [2] [nM] | IC50 [3] [nM] | IC50 [4] [µM] | IC50 [5] [nM] | Activity [6] | Activity [7] | IC50 [8] [µM] | IC50 [9] [nM] | IC50 [10] [nM] |
| --- | --- | --- | --- | --- | --- | --- | --- | --- | --- | --- |
| COc1cc2c(c(OC)c1OC)-c1ccc(OC)c(=O)cc1[C@@H](NC(=O)CCCC(=O)NO)CC2 | 2340 | 876 | 2740 | 7.37 | 1830 | Active | Active | 8.24 | 8360 | 9580 |
| COc1cc2c(c(OC)c1OC)-c1ccc(OC)c(=O)cc1[C@@H](NC(=O)CCCCCCC(=O)NO)CC2 | 3380 | 1380 | 2600 | 7.26 | 3430 | Active | Active | 9.83 | – | – |
| COc1cc2c(c(OC)c1OC)-c1ccc(OC)c(=O)cc1[C@@H](NC(=O)CCCCCC(=O)NO)CC2 | 2940 | 948 | 1380 | 7.29 | 1230 | Active | Active | 0.76 | 1030 | 1600 |
| COc1cc2c(c(OC)c1OC)-c1ccc(OC)c(=O)cc1[C@@H](NC(=O)CCCCC(=O)NO)CC2 | 5400 | 928 | 2080 | 4.93 | 1030 | Active | Active | 0.44 | 830 | 720 |
| COc1cc2c(c(OC)c1OC)-c1ccc(OC)c(=O)cc1[C@@H](NC(C)=O)CC2 [COLCHICINE] | 74 | 17 | 37 | 0.023 | 19 | – | – | – | – | – |
| COc1cc2c(c(OC)c1OC)-c1ccc(OC)c(=O)cc1[C@@H](NC(=O)CCC(=O)NO)CC2 | 813 | 825 | 903 | 4.67 | 242 | Active | Active | 3.43 | 1360 | 1330 |
